Reference: PubChem BioAssay AID449762 (Southern Research Specialized Biocontainment Screening …, 2010)
Results filed as inconclusive are left out.

System: M. tuberculosis H37Rv growth inhibition, 7H9 media
Assay: M. tuberculosis growth inhibition, HTS (AID 449762);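 further: bacterial growth assessed after seven days of incubation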
Details: for IC90: measured here: IC90 growth inhibition

COC(=O)c1c(NC(=O)CCl)sc(C(=O)N2CCOCC2)c1C
IC50: 2.19 µM | IC90: 5.65 µM

CCCCn1c(SCc2ncc(-c3ccccc3)o2)nc2cc(S(N)(=O)=O)ccc21
IC50: 3.3 µM | IC90: 5.84 µM

CN1OC(COC(=O)c2ccc(Cl)cc2Cl)CC1c1ccccc1 (stereo not given)
IC50: 2.43 µM | IC90: 16.3 µM

CCCCCc1nc2c(c(=O)c3ccccc3n2C)c(=O)n1C1CCCCCC1
IC50: 30 µM | IC90: > 100 µM

CCOc1cc(NC(=O)CCl)c(OCC)cc1NC(C)=O
IC50: < 0.2 µM | IC90: 5.99 µM

CCOC(=O)CSc1nnc(NC(=O)c2ccc3c(c2)OCO3)s1
IC50: 5.67 µM | IC90: 42.3 µM

COc1ccc(N2CCN(C(=O)c3ccc(CNc4c(N5CCOCC5)c(=O)c4=O)cc3)CC2)cc1
IC50: 2.42 µM | IC90: 5.17 µM

O=c1c2c(nc3nc(NCc4ccc(Cl)cc4)[nH]n13)CCC2
IC50: 6.28 µM | IC90: 7.32 µM

CCC[C@@H]1C[C@@H](C(=O)NC(C(C)Cl)[C@H]2O[C@H](SC)[C@H](O)[C@@H](O)[C@H]2O)N(C)C1 (stereo not given in full)
IC50: 1.53 µM | IC90: 5.1 µM

CC(C)(Oc1ccc(Cl)cc1)C(=O)OCC(=O)N1CCN(c2ccccc2)CC1
IC50: 30.5 µM | IC90: 98.2 µM

Cc1cc(C)n2[nH]c(=O)c(N=Nc3cccc(C(F)(F)F)c3)c2n1
IC50: 86.5 µM | IC90: > 100 µM

Cc1ccc(C(=O)Sc2cccccc2=O)cc1
IC50: 0.96 µM | IC90: 2.48 µM

COc1ccc(C)cc1Nc1n[n+](-c2ccccc2)c(-c2c(Cl)cccc2Cl)s1
IC50: 19.6 µM | IC90: 25.9 µM

C/C(=N\NC(=O)c1nnn(-c2nonc2N)c1CN(C)c1ccccc1)c1ccccn1
IC50: 8.5 µM | IC90: 15.7 µM

N#C/C(N=Nc1ccccc1O)=N\Nc1ccccc1O
IC50: < 0.2 µM | IC90: 1.65 µM

O=C(CSC(=S)N1CCCC1)c1cc(Br)cc(Br)c1O
IC50: 23.9 µM | IC90: 36.6 µM

CCCCC(=O)/C=C/n1c(=S)oc2ccccc21
IC50: 28.2 µM | IC90: > 100 µM

Cc1nn(C(C)(C)C)c(NC(=O)c2ccc(Cl)cc2Cl)c1Br
IC50: 2.97 µM | IC90: > 100 µM

CCOc1cccc(/C=C/c2ccc3cccc(O)c3n2)c1O
IC50: 1.38 µM | IC90: 18.5 µM

O=c1oc2ccccc2c(Nc2ccccc2O)c1[N+](=O)[O-]
IC50: 7.1 µM | IC90: 14 µM

Nc1c(C(=O)OCC2CCCO2)c2nc3ccccc3nc2n1C1CCCC1 (stereo not given)
IC50: 54.5 µM | IC90: > 100 µM

O=C(c1cc([N+](=O)[O-])cc([N+](=O)[O-])c1)N(Cc1nnc(-c2ccccc2Cl)o1)C1CC1
IC50: 2.59 µM | IC90: 8.42 µM

S=C(Nc1ccc(Nc2ccccc2)cc1)Nc1ccccn1
IC50: 48.7 µM | IC90: > 50 µM

CCOC(=O)c1nn(-c2ccc(C)c(C)c2)cc1O
IC50: 27.1 µM | IC90: > 100 µM

O=C(Nc1nc2ccc(F)cc2s1)C1CCN(S(=O)(=O)c2cc([N+](=O)[O-])ccc2Cl)CC1
IC50: 10.9 µM | IC90: 16 µM

CC(C)(C)C(=O)N1CCN(c2ccc(NC(=O)c3ccc([N+](=O)[O-])o3)cc2)CC1
IC50: < 0.2 µM | IC90: < 0.2 µM

O=C(Sc1nnc(-c2ccccc2)o1)N1c2ccccc2Sc2ccccc21
IC90: > 100 µM

Cc1ccc(CN2CCN(/N=C/c3ccc(Cl)c([N+](=O)[O-])c3)CC2)cc1
IC50: 22.7 µM | IC90: 36.5 µM

CCCc1ccc2oc(C(=O)N(C)Cc3nccs3)c(C)c2c1
IC50: 32.1 µM | IC90: 60.3 µM

Brc1ccc(-c2nc3ncccn3c2Nc2ccc3c(c2)OCCO3)o1
IC50: 59.2 µM | IC90: 90.2 µM

CCc1ccc(-c2csc(-c3c[nH]c4ccccc34)n2)cc1
IC50: 10.7 µM | IC90: 21.7 µM

COc1ccc(C2CC(c3cccs3)=Nc3ccccc3S2)cc1 (stereo not given)
IC50: 30.1 µM | IC90: 44 µM

Cc1ccc(C(=O)ONc2ccc(N=O)cc2)cc1
IC50: 23.2 µM | IC90: 43.1 µM

CCC(=O)Oc1ccc(C(=O)Nc2ccc3c(c2)C(=O)N(C2CCCCC2)C3=O)cc1
IC50: 21.2 µM | IC90: 44.5 µM

Cc1ccc(NC(=O)c2sccc2-n2cccc2)c(C)c1
IC50: 28.2 µM | IC90: 82.9 µM

Cc1ccc(-c2csc(N3CCN(CCCn4c(-c5ccncc5)nc5ccccc54)CC3)n2)cc1
IC50: 23.4 µM | IC90: 26.5 µM

O=S(Cc1ccc(Br)cc1)Cc1nnc(SCc2ccc(Cl)cc2)n1-c1ccccc1 (stereo not given)
IC50: 91.1 µM | IC90: > 100 µM

O=C1N=C(N2CCC(Cc3ccccc3)CC2)S/C1=C/c1cn[nH]c1-c1ccccc1
IC50: 27.5 µM | IC90: > 100 µM

CCC(=O)c1ccc(OCC(O)CN2CCN(c3cccc(C(F)(F)F)c3)CC2)cc1 (stereo not given)
IC50: 19.9 µM | IC90: 28 µM

CCc1ccc2oc(-c3cc(N=Cc4cccc(OC)c4O)ccc3O)nc2c1
IC50: 35.8 µM | IC90: 69.3 µM

CC(C)CCNC(=O)C(c1ccc(O)cc1)N(C(=O)C1COc2ccccc2O1)c1cccc(O)c1 (stereo not given)
IC50: 71 µM | IC90: > 100 µM

CC1(O)CC(c2ccc(Cl)cc2)=NN1C(=O)c1ccc([N+](=O)[O-])cc1 (stereo not given)
IC50: 17.5 µM | IC90: > 100 µM

CCOC(=O)CSc1nnc(SCCN2C(=O)c3ccccc3C2=O)s1
IC50: 4.3 µM | IC90: 30 µM
